Results reported in PubChem BioAssay AID743371 (Vanderbilt Specialized Chemistry Center, 2014).
The source made the active and inactive calls. How the calls were made is not given here.

Biological target: D(4) dopamine receptor (Homo sapiens) (UniProt P21917)
Test: DRD4 antagonism, single-point inhibition (AID 743371)
Conditions: D4 receptor antagonist assay; at 10 µM; stronger effect = higher value

SMILES	inhibition
FC(F)(F)Oc1ccc(CN2CCO[C@@H](CCc3ccccc3)C2)cc1	25% (inactive)
Cc1cc(C)c(C(=O)N2CCOC(CCc3ccccc3)C2)c(C)c1 (stereo not given)	-8% (inactive)
O=S(=O)(c1ccccc1)N1CCOC(CCc2ccccc2)C1 (stereo not given)	2% (inactive)
FC(F)(F)Oc1ccc(CN2CCO[C@H](CCc3ccccc3)C2)cc1	96%
O=S(=O)(c1ccccc1Cl)N1CCOC(CCc2ccccc2)C1 (stereo not given)	13% (inactive)
FC(F)(F)Oc1cccc(CN2CCOC(CCc3ccccc3)C2)c1 (stereo not given)	88%
O=C(Nc1ccccc1F)N1CCOC(CCc2ccccc2)C1 (stereo not given)	4% (inactive)
COc1ccc(NC(=O)N2CCOC(CCc3ccccc3)C2)cc1 (stereo not given)	-2% (inactive)
O=C(c1ccno1)N1CCOC(CCc2ccccc2)C1 (stereo not given)	-14% (inactive)
O=C(Nc1ccc(Cl)cc1)N1CCOC(CCc2ccccc2)C1 (stereo not given)	16% (inactive)
O=C(Nc1ccccc1Cl)N1CCOC(CCc2ccccc2)C1 (stereo not given)	2% (inactive)
Cc1ccc(NC(=O)N2CCOC(CCc3ccccc3)C2)cc1 (stereo not given)	12% (inactive)
FC(F)(F)Oc1ccc(CN2CCOC(CCc3ccccc3)C2)cc1 (stereo not given)	94%
O=C(c1ccc2c(c1)OCCO2)N1CCOC(CCc2ccccc2)C1 (stereo not given)	-4% (inactive)
Fc1cccc(F)c1CN1CCOC(CCc2ccccc2)C1 (stereo not given)	51%
Cc1ccc(C(=O)N2CCOC(CCc3ccccc3)C2)cc1 (stereo not given)	17% (inactive)
CC(C)(C)c1ccc(S(=O)(=O)N2CCOC(CCc3ccccc3)C2)cc1 (stereo not given)	5% (inactive)
O=S(=O)(c1ccc(F)cc1)N1CCOC(CCc2ccccc2)C1 (stereo not given)	-8% (inactive)
Cc1ccccc1NC(=O)N1CCOC(CCc2ccccc2)C1 (stereo not given)	15% (inactive)
O=S(=O)(c1cccc(F)c1)N1CCOC(CCc2ccccc2)C1 (stereo not given)	13% (inactive)
O=S(=O)(c1ccccc1OC(F)(F)F)N1CCOC(CCc2ccccc2)C1 (stereo not given)	6% (inactive)
O=S(=O)(c1ccccc1F)N1CCOC(CCc2ccccc2)C1 (stereo not given)	9% (inactive)
COc1ccc(C(=O)N2CCOC(CCc3ccccc3)C2)cc1 (stereo not given)	-5% (inactive)
Cc1cccc(S(=O)(=O)N2CCOC(CCc3ccccc3)C2)c1 (stereo not given)	13% (inactive)
O=C(c1cc(F)c(F)c(F)c1)N1CCOC(CCc2ccccc2)C1 (stereo not given)	10% (inactive)
O=C(Nc1ccc(F)cc1)N1CCOC(CCc2ccccc2)C1 (stereo not given)	5% (inactive)
O=C(c1ccc(Cl)cc1)N1CCOC(CCc2ccccc2)C1 (stereo not given)	7% (inactive)

Second part, the compound after the results:

inhibition	SMILES
18% (inactive)	O=C(c1cccnc1)N1CCOC(CCc2ccccc2)C1 (stereo not given)
54%	Cc1ccccc1CN1CCOC(CCc2ccccc2)C1 (stereo not given)
5% (inactive)	c1ccc(CCC2CN(c3ccccc3)CCO2)cc1 (stereo not given)
97%	Clc1ccc(CN2CCOC(CCc3ccccc3)C2)cc1 (stereo not given)
16% (inactive)	c1ccc(CCC2CN(c3ccc4ncccc4c3)CCO2)cc1 (stereo not given)
6% (inactive)	Cc1ccc(N2CCOC(CCc3ccccc3)C2)cc1 (stereo not given)
13% (inactive)	c1ccc(CCC2CN(Cc3ccncc3)CCO2)cc1 (stereo not given)
96%	Clc1ccc(CN2CCO[C@H](CCc3ccccc3)C2)cc1
74%	c1ccc(CCC2CN(Cc3ccccc3)CCO2)cc1 (stereo not given)
-11% (inactive)	O=C(Nc1cccc(F)c1)N1CCOC(CCc2ccccc2)C1 (stereo not given)
1% (inactive)	O=C(c1cccc(F)c1)N1CCOC(CCc2ccccc2)C1 (stereo not given)
88%	Fc1ccc(CN2CCOC(CCc3ccccc3)C2)cc1 (stereo not given)
5% (inactive)	O=C(c1ccccc1)N1CCOC(CCc2ccccc2)C1 (stereo not given)
39% (inactive)	Clc1ccc(CN2CCO[C@@H](CCc3ccccc3)C2)cc1
-3% (inactive)	O=S(=O)(c1ccc2ccccc2c1)N1CCOC(CCc2ccccc2)C1 (stereo not given)
86%	COc1ccc(CN2CCO[C@H](CCc3ccccc3)C2)cc1
35% (inactive)	c1ccc(CCC2CN(Cc3cccnc3)CCO2)cc1 (stereo not given)
44% (inactive)	COc1ccc(CN2CCO[C@@H](CCc3ccccc3)C2)cc1
23% (inactive)	c1ccc(CCC2CN(Cc3ccccn3)CCO2)cc1 (stereo not given)
17% (inactive)	Cn1c(N2CCOC(CCc3ccccc3)C2)nc2ccccc21 (stereo not given)
98%	COc1ccc(CN2CCOC(CCc3ccccc3)C2)cc1 (stereo not given)
-1% (inactive)	O=C(c1ccc2ccccc2n1)N1CCOC(CCc2ccccc2)C1 (stereo not given)
3% (inactive)	O=C(Nc1ccccc1)N1CCOC(CCc2ccccc2)C1 (stereo not given)
